Measured values as given in ChEMBL document CHEMBL1136892, “New 1alpha,25-dihydroxy-19-norvitamin D(3) compounds constrained in a single A-ring conformation: synthesis of the analogues by ring-closing metathesis route and their biological evaluation” (J Med Chem, 2009).

Legend:
Rattus norvegicus [1] = assay: Effect on bone calcium mobilization in vitamin D-deficient weanling Sprague-Dawley rat assessed as serum calcium level at 35100 pmol/day, ip administered as 4 consecutive daily doses measured 24 hrs after last dose; type: functional
Rattus norvegicus [2] = assay: Effect on intestinal calcium transport in vitamin D-deficient weanling Sprague-Dawley rat assessed as increase in ratio of serosal to mucosal calcium level at 780 pmol/day, ip administered as 4 consecutive daily doses measured 24 hrs after last dose by everted gut sac method; type: functional
Rattus norvegicus [3] = assay: Effect on intestinal calcium transport in vitamin D-deficient weanling Sprague-Dawley rat assessed as increase in ratio of serosal to mucosal calcium level at 7020 pmol/day, ip administered as 4 consecutive daily doses measured 24 hrs after last dose by everted gut sac method; type: functional
Rattus norvegicus [4] = assay: Effect on intestinal calcium transport in vitamin D-deficient weanling Sprague-Dawley rat assessed as increase in ratio of serosal to mucosal calcium level at 35100 pmol/day, ip administered as 4 consecutive daily doses measured 24 hrs after last dose by everted gut sac method; type: functional
Vitamin D3 receptor = target: T1, Vitamin D3 receptor (Rattus norvegicus, UniProt P13053); assay: Displacement of [3H]1-alpha,25-(OH)2D3 from rat recombinant full length VDR
T1 sequence (P13053 whole entry): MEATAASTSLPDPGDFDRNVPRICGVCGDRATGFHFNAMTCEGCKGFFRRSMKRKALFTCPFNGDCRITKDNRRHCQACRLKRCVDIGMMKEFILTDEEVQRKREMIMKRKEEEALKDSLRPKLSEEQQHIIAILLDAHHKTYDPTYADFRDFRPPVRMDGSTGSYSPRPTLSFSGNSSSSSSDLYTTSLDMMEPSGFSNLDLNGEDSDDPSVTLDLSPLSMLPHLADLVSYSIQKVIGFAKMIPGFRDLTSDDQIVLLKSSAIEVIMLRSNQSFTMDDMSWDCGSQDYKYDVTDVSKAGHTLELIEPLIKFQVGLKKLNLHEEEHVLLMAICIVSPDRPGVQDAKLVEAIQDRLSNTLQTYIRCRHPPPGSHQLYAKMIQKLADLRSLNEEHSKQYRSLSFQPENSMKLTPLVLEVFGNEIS

[5] = target: T2, Vitamin D3 receptor (Rattus norvegicus) (UniProt P13053); assay: Ratio of Ki of the drug to Ki of [3H]1-alpha,25-(OH)2D3 for rat recombinant full length VDR
T2 sequence (whole entry): T1 sequence (P13053 whole entry)

HL-60 [6] = assay: Induction of human HL60 cell differentiation into monocytes after 4 days by NBT reduction assay; type: functional
HL-60 [7] = assay: Ratio of ED50 of drug to ED50 of [3H]1-alpha,25-(OH)2D3 for induction of human HL60 cell differentiation into monocytes by NBT reduction assay; type: functional
[8] = target: T2, Vitamin D3 receptor (Rattus norvegicus); assay: Activity at VDR in rat osteosarcoma 17/2.8 cells assessed as transcriptional activation of 24-hydroxylase gene promoter after 16 hrs by luciferase reporter gene assay
[9] = target: T2, Vitamin D3 receptor (Rattus norvegicus); assay: Ratio of ED50 of compound to ED50 of [3H]1-alpha,25-(OH)2D3 for VDR in rat osteosarcoma 17/2.8 cells by 24-hydroxylase gene transcriptional activation assay
Rattus norvegicus [10] = assay: Effect on bone calcium mobilization in vitamin D-deficient weanling Sprague-Dawley rat assessed as serum calcium level at 780 pmol/day, ip administered as 4 consecutive daily doses measured 24 hrs after last dose; type: functional
Rattus norvegicus [11] = assay: Effect on bone calcium mobilization in vitamin D-deficient weanling Sprague-Dawley rat assessed as serum calcium level at 7020 pmol/day, ip administered as 4 consecutive daily doses measured 24 hrs after last dose; type: functional
Rattus norvegicus [12] = assay: Effect on intestinal calcium transport in vitamin D-deficient weanling Sprague-Dawley rat assessed as ratio of serosal to mucosal calcium level at 87 pmol/day, ip administered as 4 consecutive daily doses measured 24 hrs after last dose by everted gut sac method; type: functional
Rattus norvegicus [13] = assay: Effect on intestinal calcium transport in vitamin D-deficient weanling Sprague-Dawley rat assessed as increase in ratio of serosal to mucosal calcium level at 260 pmol/day, ip administered as 4 consecutive daily doses measured 24 hrs after last dose by everted gut sac method; type: functional
Rattus norvegicus [14] = assay: Effect on intestinal calcium transport in vitamin D-deficient weanling Sprague-Dawley rat assessed as increase in ratio of serosal to mucosal calcium level at 2340 pmol/day, ip administered as 4 consecutive daily doses measured 24 hrs after last dose by everted gut sac method; type: functional
Rattus norvegicus [15] = assay: Effect on bone calcium mobilization in vitamin D-deficient weanling Sprague-Dawley rat assessed as serum calcium level at 87 pmol/day, ip administered as 4 consecutive daily doses measured 24 hrs after last dose; type: functional
Rattus norvegicus [16] = assay: Effect on bone calcium mobilization in vitamin D-deficient weanling Sprague-Dawley rat assessed as serum calcium level at 260 pmol/day, ip administered as 4 consecutive daily doses measured 24 hrs after last dose; type: functional
Rattus norvegicus [17] = assay: Effect on bone calcium mobilization in vitamin D-deficient weanling Sprague-Dawley rat assessed as serum calcium level at 2340 pmol/day, ip administered as 4 consecutive daily doses measured 24 hrs after last dose; type: functional

Compound	Activity (Rattus norvegicus [1]) [mg/dL]	Activity (Rattus norvegicus [2]) [mg/dL]	Activity (Rattus norvegicus [3]) [mg/dL]	Activity (Rattus norvegicus [4]) [mg/dL]	Ki (Vitamin D3 receptor) [nM]	Ratio Ki [5]	ED50 (HL-60 [6])	Ratio ED50 (HL-60 [7])	ED50 [8]	Ratio ED50 [9]	Activity (Rattus norvegicus [10]) [mg/dL]	Activity (Rattus norvegicus [11]) [mg/dL]	Activity (Rattus norvegicus [12]) [mg/dL]	Activity (Rattus norvegicus [13]) [mg/dL]	Activity (Rattus norvegicus [14]) [mg/dL]	Activity (Rattus norvegicus [15]) [mg/dL]	Activity (Rattus norvegicus [16]) [mg/dL]	Activity (Rattus norvegicus [17]) [mg/dL]
C=C1/C(=C\C=C2/CCC[C@]3(C)[C@@H]([C@H](C)CCCC(C)(C)O)CC[C@@H]23)C[C@H]2OCC=C2[C@@H]1O	9.6	11.3	10.2	8.7	60	600	1 ×10⁻⁶ M	330	6 ×10⁻⁸ M	300	4.3	6.1	–	–	–	–	–	–
C=C1/C(=C\C=C2/CCC[C@]3(C)[C@@H]([C@H](C)CCCC(C)(C)O)CC[C@@H]23)C[C@@H](O)C[C@@H]1O [CALCITRIOL]	9	11.3	10.2	8.7	–	–	3 ×10⁻⁹ M	–	2 ×10⁻¹⁰ M	–	5.8	7.9	8.9	12	10.2	4.9	5.6	7.3
C=C1/C(=C\C=C2/CCC[C@]3(C)[C@@H]([C@H](C)CCCC(C)(C)O)CC[C@@H]23)C[C@@H](O)C2=CCO[C@H]12	–	9.7	13.7	–	0.2	2	3 ×10⁻⁸ M	10	6 ×10⁻⁹ M	30	4.3	4.6	–	–	–	–	–	–
